Test results from patent US8974793B2, “Methods and systems for inducing immunologic tolerance to non-self antigens” (The Governors Of The University Of Alberta, priority 2008, dated 2015).

Assay: Blood plasma stability of A type I antigen functionalized silica-coated stainless steel (modified ELISA readout)
Format: in vitro ADME, pig
Conditions: I-14 bound to silica-coated stainless steel, 12 days agitation
Description: Several silica-coated stainless steel samples bearing the A type I antigen were prepared, according to the general procedure defined above. Each of the samples was placed in three different types of pig blood plasma (blood group O, blood group A and commercial pooled blood group O plasma). The samples were agitated on a shaker table for 12 days. After 12 days, the samples were removed from the pig blood plasma and placed in ethanol.
Each silica-coated stainless steel stent surface was treated with a solution of 2% BSA in PBST (200 μL) and shaken (14 h, 5° C.). The surface was then removed and then incubated with mouse anti-A IgM antibodies (5° C., 14 h, 0.023 mg/mL, 50 μL). The surface was then removed, thoroughly washed with PBST and then treated with a secondary HRP conjugated goat anti-mouse IgM antibody (21° C., 3 h, 0.013 mg/mL, 50 μL). The surface was thoroughly washed with PBST to remove unbound antibody and then treated with a solution of SigmaFast OPD (200 μL, 1 h). An aliquot of this solution (100 μL) was then taken and the absorbance measured at 450 nm.

Measured: attachment of antigen to silica-coated stainless steel after plasma incubation (modified ELISA, anti-A IgM, absorbance 450 nm)

CO[Si](CCCSCCCCCCCCO[C@@H]1O[C@H](CO)[C@@H](O)[C@H](O[C@@H]2O[C@H](CO)[C@H](O)[C@H](O[C@H]3O[C@H](CO)[C@H](O)[C@H](O)[C@H]3NC(C)=O)[C@H]2O[C@@H]2O[C@@H](C)[C@@H](O)[C@@H](O)[C@@H]2O)[C@H]1NC(C)=O)(OC)OC [I-14, 8-(3-(trimethoxysilyl)propylthio)octan-1-yl 2-N-Acetyl-3-O-(3-O-(2-N-acetyl-2-deoxy-α-D-galactopyranosyl)-2-O-(α-L-fucopyranosyl)-β-D-galactopyranosyl)-2-deoxy-β-D-glucopyranoside]
confirming the attachment: pig A blood plasma | pig O blood plasma | pig-pooled O blood plasma
